Source: the supplement of paper PMC10733146

What was measured:
Test in all cases: viability relative to DMSO control (fraction); higher = less drug effect (more viable cells)
Settings in all cases: 48 h
[1] = test system: primary AML patient cells (S089)
Outline: (§1)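 In 384-well plates with compounds pre-plated at five concentrations (one well per concentration), primary mononuclear tumour cells were plated at 4 × 10^4 cells per well. The cells came from blood or bone marrow by Ficoll isolation or from processed lymph node, and were used fresh or cryopreserved. Culture ran for 48 h at 37 °C and 5% CO2 in RPMI-1640 containing penicillin/streptomycin, L-glutamine and human serum. Viability was read as CellTiter-Glo luminescence, normalised to the median of 16 inner DMSO wells.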

[2] = test system: primary AML patient cells (S085)
Outline: as §1

[3] = test system: primary AML patient cells (S037)
Outline: as §1

[4] = test system: primary DLBCL patient cells (S076)
Outline: as §1

[5] = test system: primary AML patient cells (S025)
Outline: as §1

[6] = test system: primary T-NHL patient cells (S058)
Outline: as §1

[7] = test system: primary AML patient cells (S002)
Outline: as §1

[8] = test system: primary AML patient cells (S011)
Outline: as §1

[9] = test system: primary AML patient cells (S091)
Outline: as §1

[10] = test system: primary AML patient cells (S081)
Outline: as §1

[11] = test system: primary AML patient cells (S006)
Outline: as §1

[12] = test system: primary AML patient cells (S021)
Outline: as §1

[13] = test system: primary AML patient cells (S017)
Outline: as §1

[14] = test system: primary DLBCL patient cells (S049)
Outline: as §1

[15] = test system: primary CLL patient cells (S043)
Outline: as §1

[16] = test system: primary AML patient cells (S012)
Outline: as §1

[17] = test system: primary AML patient cells (S019)
Outline: as §1

COc1ccc(C2=N[C@@H](c3ccc(Cl)cc3)[C@@H](c3ccc(Cl)cc3)N2C(=O)N2CCNC(=O)C2)c(OC(C)C)c1 [Nutlin-3a]
viability ([1]; 0.032 µM): 1.07
viability ([1]; 0.16 µM): 1.01
viability ([1]; 0.8 µM): 1.01
viability ([1]; 4 µM): 0.802
viability ([1]; 20 µM): 0.511
viability ([2]; 0.032 µM): 1.06
viability ([2]; 0.16 µM): 1.31
viability ([2]; 0.8 µM): 0.877
viability ([2]; 4 µM): 0.509
viability ([2]; 20 µM): 0.503
viability ([3]; 0.032 µM): 0.982
viability ([3]; 0.16 µM): 0.974
viability ([3]; 0.8 µM): 0.964
viability ([3]; 4 µM): 0.742
viability ([3]; 20 µM): 0.421
viability ([4]; 0.032 µM): 0.907
viability ([4]; 0.16 µM): 0.909
viability ([4]; 0.8 µM): 0.934
viability ([4]; 4 µM): 0.737
viability ([4]; 20 µM): 0.357
viability ([5]; 0.032 µM): 0.961
viability ([5]; 0.16 µM): 0.947
viability ([5]; 0.8 µM): 0.788
viability ([5]; 4 µM): 0.346
viability ([5]; 20 µM): 0.0996
viability ([6]; 0.032 µM): 0.946
viability ([6]; 0.16 µM): 0.939
viability ([6]; 0.8 µM): 0.941
viability ([6]; 4 µM): 0.634
viability ([6]; 20 µM): 0.18
viability ([7]; 0.032 µM): 0.891
viability ([7]; 0.16 µM): 0.91
viability ([7]; 0.8 µM): 0.726
viability ([7]; 4 µM): 0.401
viability ([7]; 20 µM): 0.268
viability ([8]; 0.032 µM): 0.973
viability ([8]; 0.16 µM): 1.04
viability ([8]; 0.8 µM): 0.8
viability ([8]; 4 µM): 0.363
viability ([8]; 20 µM): 0.155
viability ([9]; 0.032 µM): 0.988
viability ([9]; 0.16 µM): 0.84
viability ([9]; 0.8 µM): 0.62
viability ([9]; 4 µM): 0.404
viability ([9]; 20 µM): 0.365
viability ([10]; 0.032 µM): 0.997
viability ([10]; 0.16 µM): 0.979
viability ([10]; 0.8 µM): 1.03
viability ([10]; 4 µM): 1.02
viability ([10]; 20 µM): 0.783
viability ([11]; 0.032 µM): 1.01
viability ([11]; 0.16 µM): 0.917
viability ([11]; 0.8 µM): 0.694
viability ([11]; 4 µM): 0.136
viability ([11]; 20 µM): 0.0568
viability ([12]; 0.032 µM): 0.972
viability ([12]; 0.16 µM): 0.978
viability ([12]; 0.8 µM): 0.73
viability ([12]; 4 µM): 0.328
viability ([12]; 20 µM): 0.2
viability ([13]; 0.032 µM): 1.05
viability ([13]; 0.16 µM): 0.979
viability ([13]; 0.8 µM): 1.03
viability ([13]; 4 µM): 1.03
viability ([13]; 20 µM): 1.08
viability ([14]; 0.032 µM): 1.1
viability ([14]; 0.16 µM): 0.987
viability ([14]; 0.8 µM): 1.01
viability ([14]; 4 µM): 1.04
viability ([14]; 20 µM): 0.835
viability ([15]; 0.032 µM): 1.05
viability ([15]; 0.16 µM): 1.01
viability ([15]; 0.8 µM): 1.04
viability ([15]; 4 µM): 0.894
viability ([15]; 20 µM): 0.322
viability ([16]; 0.032 µM): 0.945
viability ([16]; 0.16 µM): 0.946
viability ([16]; 0.8 µM): 1.03
viability ([16]; 4 µM): 1.01
viability ([16]; 20 µM): 0.883
viability ([17]; 0.032 µM): 1.13
viability ([17]; 0.16 µM): 1.03
viability ([17]; 0.8 µM): 1.08
viability ([17]; 4 µM): 0.546
viability ([17]; 20 µM): 0.259
